Results: patent US4578475A, “Novel D-homosteroids” (Hoffman-La Roche Inc., priority 1983, dated 1986)

Tests used:
[1] = system: pregnant female albino rats; experiment: Interceptive activity in rats (pregnant rats, serum progesterone, living foetuses, resorptions, vacant implantation positions); format: in vivo, rat; details: for Serum progesterone 3 h later: orally or intramuscularly on 10th day of pregnancy; for Living foetuses, n (number of animals) / Living foetuses, x (mean of the observations) / Resorption, n (number of animals) / Resorption, x (mean of the observations) / Vacant implantation positions, n (number of animals) / Vacant implantation positions, x (mean of the observations): orally or intramuscularly on 10th day, killed on 15th day
Description: Female albino rats were kept under controlled conditions, the synchronicity of the cycle being monitored by daily vaginal douching and subsequent cytological investigation. At proestrus the animals were brought together with male, fertile rats. The successful insemination was checked on the following morning and this day was denoted as the 1st day of the pregnancy. The pregnant animals then received the test substances as a suspension in a standard vehicle (0.5% carboxymethylcellulose, 0.4% TWEEN 80, 0.9% benzyl alcohol and 0.9% NaCl in water) orally or intramuscularly on the 10th day. The animals were killed on the 15th day. The blood was collected and the uteri were investigated for living foetuses, resorptions and vacant implantation positions. The serum hormone concentrations were determined radio-immunologically.

[2] = target: T1, Δ^5 -isomerase/3β-hydroxysteroid dehydrogenase (Rattus norvegicus, UniProt P22071); experiment: Inhibition of the formation of progesterone in vitro (14C-pregnenolone, rat ovary microsomes); format: biochemical; details: 0.5 μg protein, 250 pmol 14C-pregnenolone, 0.4 mg NAD+, 30 minutes, 37° C., pH 7.4, read-out: IC50 (concentration of the test substance at which the enzyme activity amounts to 50% of the maximum value)
T1 construct: from tissue; host or cells: rat ovary microsomes
T1 sequence (P22071 1-373): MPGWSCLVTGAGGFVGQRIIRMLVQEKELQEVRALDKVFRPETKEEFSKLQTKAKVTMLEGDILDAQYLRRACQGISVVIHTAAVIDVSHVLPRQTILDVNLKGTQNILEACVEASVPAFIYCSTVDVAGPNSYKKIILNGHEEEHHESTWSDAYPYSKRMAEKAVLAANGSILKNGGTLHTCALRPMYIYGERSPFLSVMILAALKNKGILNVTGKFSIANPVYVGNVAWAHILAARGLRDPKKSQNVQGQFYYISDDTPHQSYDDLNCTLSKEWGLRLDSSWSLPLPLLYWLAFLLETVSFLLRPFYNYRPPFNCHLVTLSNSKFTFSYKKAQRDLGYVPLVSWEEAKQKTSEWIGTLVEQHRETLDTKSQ
Procedure: The activity of the D-homosteroids of formula I as inhibitors of Δ^5 -isomerase/3β-hydroxysteroid dehydrogenase was determined in the following experimental procedures:
Rat overies were homogenized in 0.05 M Na2 HPO4 buffer (pH 7.2) which contained 0.25 M sucrose and 0.05 M dithiothreitol. The microsomes obtained after centrifugation were suspended in 0.05 M Na2 HPO4 buffer (pH 7.4) which contained 0.001 M EDTA. This microsome preparation was assayed firstly for enzymatic activity by measuring the increase of the optical density at 340 nm by the reduction of NAD^+. Thereafter, aliquot portions (0.5 μg of protein) were incubated in 1.8 ml of buffer for 30 minutes at 37° C. with 250 pmol of ^14 C-pregnelonone, 0.4 mg of NAD^+ and different concentrations of the test substance dissolved in the minimum amounts of dimethyl sulphoxide. The reaction was interrupted by the addition of methylene chloride. After extraction and evaporation of the solvent, the radioactive metabolites were separated on silica gel-aluminium plates with benzene/acetone (85:15). The radioactivity was measured by means of a scintillation counter.

Structure (SMILES) | Serum progesterone 3 h later ([1]; 7.5 mg/kg) [ng/mL] | Living foetuses, n (number of animals) ([1]; 7.5 mg/kg) | Resorption, n (number of animals) ([1]; 7.5 mg/kg) | Vacant implantation positions, n (number of animals) ([1]; 7.5 mg/kg) | Vacant implantation positions, x (mean of the observations) ([1]; 7.5 mg/kg) | Serum progesterone 3 h later ([1]; 15 mg/kg) [ng/mL] | Living foetuses, n (number of animals) ([1]; 15 mg/kg) | Resorption, n (number of animals) ([1]; 15 mg/kg) | Vacant implantation positions, n (number of animals) ([1]; 15 mg/kg) | Vacant implantation positions, x (mean of the observations) ([1]; 15 mg/kg) | Resorption, x (mean of the observations) ([1]; 7.5 mg/kg) | IC50 [2] [nM] | further results
CC1(C)C2=CC[C@@H]3[C@H](CC[C@@]4(C)[C@H]3CC=C[C@]4(C)O)[C@@]2(C)Cc2cnoc21 [Example 2, 4,4,17a-trimethyl-D-homo-androsta-2,5,16-trieno[2,3-d]isoxazol-17aβ-ol] | 39 | 0 | 0 | 6 | 13 | 35 | 0 | 0 | 6 | 12 |  |  | Serum progesterone 3 h later ([1]; 3.75 mg/kg): 87 ng/mL; Living foetuses, n (number of animals) ([1]; 3.75 mg/kg): 3; Living foetuses, x (mean of the observations) ([1]; 3.75 mg/kg): 12; Resorption, n (number of animals) ([1]; 3.75 mg/kg): 2; Resorption, x (mean of the observations) ([1]; 3.75 mg/kg): 9; Vacant implantation positions, n (number of animals) ([1]; 3.75 mg/kg): 2; Vacant implantation positions, x (mean of the observations) ([1]; 3.75 mg/kg): 13
CC1(C)C2=CC[C@@H]3[C@H](CC[C@@]4(C)[C@H]3CCC[C@]4(C)O)[C@@]2(C)Cc2cnoc21 [Example 3, 4,4,17a-trimethyl-D-homo-androsta-2,5-dieno[2,3-d]-isoxazol-17aβ-ol] | 25 | 4 | 5 | 2 | 3 | 29 | 4 | 6 | 3 | 13 | 6 |  | Living foetuses, x (mean of the observations) ([1]; 7.5 mg/kg): 9; Living foetuses, x (mean of the observations) ([1]; 15 mg/kg): 9; Resorption, x (mean of the observations) ([1]; 15 mg/kg): 3
CC1(C)C2=CC[C@H]3[C@@H]4CC=C[C@H](O)[C@@]4(C)CC[C@@H]3[C@@]2(C)Cc2cn[nH]c21 [Example 5, 4,4-dimethyl-2'H-D-homo-androsta-2,5,16-trieno[3,2-c]pyrazol-17aβ-ol] |  |  |  |  |  |  |  |  |  |  |  | 0.8 | 
CC1(C)C2=CC[C@@H]3[C@H](CC[C@@]4(C)[C@H]3CC=C[C@]4(C)O)[C@@]2(C)Cc2cn[nH]c21 [Example 6, 4,4,17a-trimethyl-2'H-D-homo-androsta-2,5,16-trieno[3,2-c]-pyrazol-17aβ-ol] |  |  |  |  |  |  |  |  |  |  |  | 0.4 | 
CCCCC1(O)C=CCC2C3CC=C4C(C)(C)c5[nH]ncc5CC4(C)C3CCC21C [Example 7, 17a-butyl-4,4-dimethyl-2'H-D-homo-androsta-2,5,16-trieno[3,2-c]pyrazol-17aβ-ol] |  |  |  |  |  |  |  |  |  |  |  | 6 | 
CC(=O)O[C@H]1C=CC[C@H]2[C@@H]3CC=C4C(C)(C)c5nn(C(C)=O)cc5C[C@]4(C)[C@H]3CC[C@]12C [Example 12, 1'-acetyl-4,4-dimethyl-1'H-D-homo-androsta-5,16-dieno[3,2-c]pyrazol-17aβ-yl acetate] |  |  |  |  |  |  |  |  |  |  |  | 6 | 
CC1(C)C(=O)[C@H](C#N)C[C@@]2(C)C1=CC[C@@H]1[C@@H]2CC[C@@]2(C)[C@H]1CCC[C@]2(C)O [Example 14, 17aβ-hydroxy-4,4,17a-trimethyl-3-oxo-D-homo-androst-5-ene-2a-carbonitrile] | 20 | 1 | 3 | 4 | 12 | 20 | 1 | 3 | 4 | 13 | 12 |  | Living foetuses, x (mean of the observations) ([1]; 7.5 mg/kg): 3; Living foetuses, x (mean of the observations) ([1]; 15 mg/kg): 12; Resorption, x (mean of the observations) ([1]; 15 mg/kg): 14
CC1(C)C(=O)[C@H](C#N)C[C@@]2(C)C1=CC[C@@H]1[C@@H]2CC[C@@]2(C)[C@H]1CC=C[C@]2(C)O [Example 17, 17aβ-hydroxy-4,4,17a-trimethyl-3-oxo-D-homo-androsta-5,16-diene-2α-carbonitrile] | 29 | 0 | 2 | 4 | 11 |  |  |  |  |  | 15 | 6.5 | Serum progesterone 3 h later ([1]; 3.75 mg/kg): 32 ng/mL; Living foetuses, n (number of animals) ([1]; 3.75 mg/kg): 2; Living foetuses, x (mean of the observations) ([1]; 3.75 mg/kg): 5; Resorption, n (number of animals) ([1]; 3.75 mg/kg): 5; Resorption, x (mean of the observations) ([1]; 3.75 mg/kg): 11; Vacant implantation positions, n (number of animals) ([1]; 3.75 mg/kg): 1; Vacant implantation positions, x (mean of the observations) ([1]; 3.75 mg/kg): 13
CC1(C)C(=O)[C@H](C#N)C[C@@]2(C)C1=CC[C@@H]1[C@@H]2CC[C@@]2(C)[C@H]1CC=C[C@@]21CCC(=O)O1 [Example 19, 2α-cyano-4,4-dimethyl-3-oxo-D-homo-17aα-pregna-5,16-diene-21,17a-carbolactone] |  |  |  |  |  | 9 | 0 | 0 | 8 | 13 |  |  | 
CC1(C)C(=O)C(=CNO)C[C@@]2(C)C1=CC[C@@H]1[C@@H]2CC[C@@]2(C)[C@H]1CC=C[C@]2(C)O [Example 21, 17aβ-hydroxy-2-[(hydroxyamino)methylene]-4,4,17a-trimethyl-D-homo-androsta-5,16-dien-3-one] | 24 | 3 | 6 | 2 | 10 | 17 | 1 | 0 | 6 | 13 | 10 |  | Living foetuses, x (mean of the observations) ([1]; 7.5 mg/kg): 6; Living foetuses, x (mean of the observations) ([1]; 15 mg/kg): 15
CC(=O)OC1=C(C#N)C[C@]2(C)[C@H]3CC[C@]4(C)[C@@H](OC(C)=O)C=CC[C@H]4[C@@H]3CC[C@]23O[C@H]13 [Example 22, 3,17aβ-diacetoxy-4α,5α-epoxy-D-homo-5α-androsta-2,16-diene-2-carbonitrile] |  |  |  |  |  |  |  |  |  |  |  | 0.9 | 
C[C@]1(O)C=CC[C@H]2[C@@H]3CC[C@@]45O[C@]4(C)C(=O)[C@H](C#N)C[C@]5(C)[C@H]3CC[C@@]21C [Example 25, 4α, 5-epoxy-17aβ-hydroxy-4,17a-dimethyl-3-oxo-D-homo-5α-androst-16-ene-2α-carbonitrile] |  |  |  |  |  |  |  |  |  |  |  | 7 | 
